Experimental data as given in patent US20250325531A1, “TREATMENT OF SYSTOLIC DYSFUNCTION” (MyoKardia, Inc., priority 2024, published 2025).

How the values were obtained:
[1] = test system: healthy subjects; assay: Transthoracic echocardiography (TTE) pharmacodynamics after single ascending doses in healthy volunteers; type: in vivo, human; settings: for SET, mean (SD) increase from Baseline: 1.5 to 2 hours postdose
Experimental: To assess pharmacodynamic effects, serial echocardiograms were performed. The sonographers used in the study completed Echo protocol training and submitted an example of a study for evaluation to the core laboratory for evaluation. The core TTE lab certified that the sonographer was able to perform the TTEs at a level satisfactory for obtaining the required protocol data.
These criteria were chosen to prevent subjects from having prolongation of SET that might lead to myocardial ischemia. Dose escalation stopping criteria also included observation of a Baseline-corrected, group mean relative increase of >20% in any 2 sequential TTE assessments in at least 2 measures of LV contractility: LVOT-VTI, LVFS, LVEF, or LVSV in subjects receiving Compound I. Placebo-controlled evaluation may have been considered. For this comparison, subjects who received placebo may have been pooled across cohorts.
PK and PD data were collected as described herein. […] Changes from Baseline at each postbaseline timepoint were assessed.
SET as determined by TTE was assessed using summary statistics. Observations and change from Baseline were summarized by treatment at each time point and the maximum change from Baseline determined for each subject. In addition, categorical analyses were performed on the number of subjects with a change from Baseline >50 msec and the number of subjects with a change from Baseline >75 msec in 1 or any 2 sequential TTE assessments. The relationship to Compound I plasma concentration to SET was explored. An analysis of SET placebo-adjusted change from Baseline was also performed.
As the Cmax occurred at between 4 and 6 hours in most of the subjects, the TTE obtained at 6 hours postdose was considered the best timepoint to explore the relationship between concentration and pharmacological effect. TTEs obtained at 1.5 and 3 hours after dosing were before the Cmax and at 9 hours were after the peak Cmax. Based on the preclinical data, it was considered unlikely that there would be a prolonged lag between the Cmax and peak pharmacological effect. As the exposure after the administration of the 350 mg and 525 mg doses were very similar, it was decided to not only present the results from these groups separately, but also to combine the data from these groups. By combining the data from the 2 groups, the number of subjects dosed was increased from 6 to 12, thus increasing the power to observe a statistically significant change from Baseline in the TTE parameters of interest.

[2] = Pharmacokinetics of single ascending doses (SAD Cohorts 1 and 2) in patients with stable HFrEF; type: in vivo, human
From the text: This example describes a study to establish preliminary safety and tolerability of single- and multiple-ascending oral doses of Compound I in ambulatory patients with stable heart failure with reduced ejection fraction (HFrEF). Key eligibility criteria included stable HFrEF of ischemic or nonischemic origin, treated with guideline-directed medical therapy (EF initial requirement during Screening was 20 to 45%, and was later changed by amendment to 15 to 35%). Subjects with active ischemia or severe or valvular heart disease were excluded. The study also aimed (1) to establish preliminary human PK of Compound I after single- and multiple-ascending oral doses of Compound I in patients with HFrEF; (2) to determine changes in left ventricular stroke volume (LVSV) derived from left ventricular outflow tract-velocity time integral (LVOT-VTI), left ventricular ejection fraction (LVEF) and change in left ventricular fractional shortening (LVFS) with Compound I after ascending single and multiple doses compared with Baseline and placebo as measured by transthoracic echocardiography (TTE); (3) to determine changes in systolic ejection time (SET) with Compound I after ascending single and multiple doses compared with Baseline and placebo as measured by TTE; and (4) to determine changes in pharmacodynamics (PD) dose/concentration effects (change in LVSV (derived from LVOT-VTI), LVEF, LVFS) with Compound I compared with Baseline and placebo after ascending single and multiple doses, as measured by TTE.
Part 1 was a randomized, crossover, DB, placebo-controlled, two-cohort, sequential ascending (oral) single-dose study in ambulatory patients with heart failure. All patients received placebo and 2 or 3 active doses of Compound I. Each patient underwent sequential, single-dose treatment events separated by no fewer than 5 days and no more than 14 days. Patients in Cohort 1 may also return for a fourth dosing period (open label) after the SRC reviews available data and recommends the dose. Patients enrolled prior to the implementation of Amendment 1 may be offered the opportunity to return for the open-label period. Patients in Cohort 2 participated in 2 to 4 dosing periods, based on SRC decision. Patients were randomized to one of the different dosing sequences outlined in FIG. 5A. Multiple patients could be dosed at the same time or during the same week depending on administrative issues, i.e., capacity and scheduling.
For each dosing period, patients were admitted to the clinical site on Day-1. Patients were assessed for absence of exclusion criteria (e.g., new lab abnormalities and/or conditions that indicate the patient is clinically unstable). They received Compound I or placebo in the morning of Day 1 followed by serial PK and PD assessments, as well as serial safety assessments. Patients were discharged on Day 3 (i.e., ˜48 hours following Day 1 dosing). An additional outpatient plasma PK sample was taken on the morning of Day 4 at 72 hours postdose.
Study medication consisted of Compound I 5 mg tablets, 25 mg tablets, 100 mg tablets, or matching placebo tablets. In Part 1 (SAD), Compound I or placebo was administered after an overnight fast (at least 6 hours), while in Part 2 (MAD), Compound I was administered after a 2 hour fast (Cohort A) or with food (Cohorts B, C, and D). The dose was ingested with a minimum of 240 mL of water, but more water was ingested as needed. The entire dose was administered over a period of up to 15 minutes. The time of dose used to determine future assessments was the time the last tablet was taken. In the cohorts for Part 2 (MAD), a BID regimen was used.
In Part 1 (SAD), patients fasted overnight (approximately 6 hours) through 4 hours postdose. With the exception of the water consumed with the dose, water could be ingested until approximately 1 hour prior to dosing and approximately 1 hour after dosing. If doses were split, subjects fasted 6 hours prior to the first half-dose. […]

[3] = 6 hours postdose, plasma concentration bin 0-1000 ng/mL (n = 29)
[4] = 6 hours postdose, plasma concentration bin 1001-2000 ng/mL (n = 9)
[5] = 6 hours postdose, plasma concentration bin >2000 ng/mL (n = 10)
[6] = plasma concentrations >2000 ng/ml, 6 hours postdose

With `Cn1cc(S(=O)(=O)[C@@](C)(F)C2CCN(C(=O)Nc3ccon3)CC2)c(C(F)F)n1` [Compound I, (R)-4-(1-((3-(difluoromethyl)-1-methyl-1H-pyrazol-4-yl)sulfonyl)-1-fluoroethyl)-N-(isoxazol-3-yl) piperidine-1-carboxamide] the “SET, mean (SD) increase from Baseline” value ([1]; 350 mg and 525 mg combined) was 18.0 (19.5) msec, the “SET, mean (SD) increase from Baseline” value ([1]; 350 mg) was 19.2 (20.5) msec and the “DBP, placebo-corrected LS mean difference of change from Baseline” value [1, 3] was 2.277 mm Hg. The “E/A ratio, placebo-corrected LS mean difference of change from Baseline” value [1, 3] was 0.150, the “HR, placebo-corrected LS mean difference of change from Baseline” value [1, 3] was −1.070 bpm and the “LVEDD, placebo-corrected LS mean difference of change from Baseline” value [1, 3] was −0.014 cm. For the same molecule, the “LVESD, placebo-corrected LS mean difference of change from Baseline” value [1, 3] was 0.025 cm, the “LVFS, placebo-corrected LS mean difference of change from Baseline” value [1, 3] was −0.560% and the “MPI, placebo-corrected LS mean difference of change from Baseline” value [1, 3] was −0.007. For the same molecule, the “SBP, placebo-corrected LS mean difference of change from Baseline” value [1, 3] was −0.623 mm Hg, the “DBP, placebo-corrected LS mean difference of change from Baseline” value [1, 4] was 2.937 mm Hg and the “HR, placebo-corrected LS mean difference of change from Baseline” value [1, 4] was 0.336 bpm. The “LVEDD, placebo-corrected LS mean difference of change from Baseline” value [1, 4] was −0.041 cm, the “LVEDV, placebo-corrected LS mean difference of change from Baseline” value [1, 4] was -6.100 mL and the “MPI, placebo-corrected LS mean difference of change from Baseline” value [1, 4] was −0.021. For the same molecule, the “SBP, placebo-corrected LS mean difference of change from Baseline” value [1, 4] was 1.132 mm Hg, the “DBP, placebo-corrected LS mean difference of change from Baseline” value [1, 5] was 1.540 mm Hg and the “E/A ratio, placebo-corrected LS mean difference of change from Baseline” value [1, 5] was −0.047. For the same molecule, the “E/e′(lateral), placebo-corrected LS mean difference of change from Baseline” value [1, 5] was −0.063, the “HR, placebo-corrected LS mean difference of change from Baseline” value [1, 5] was 2.871 bpm and the “MPI, placebo-corrected LS mean difference of change from Baseline” value [1, 5] was 0.033. The “SBP, placebo-corrected LS mean difference of change from Baseline” value [1, 5] was −1.572 mm Hg, the “plasma concentrations at which PD effects were discernable” value ([1]; echocardiographic measures) was ≥ 1000 ng/mL and the “IVRT (mitral inflow doppler), placebo-corrected LS mean difference” value [1, 6] was 12.0 ms. The “stroke volume, placebo-corrected LS mean difference±SE” value [1, 6] was 8.20 ± 3.99 mL, the “mean (SD) Cmax” value ([2]; 350 mg single dose, fasted) was 2760 (856) ng/mL and the “AUC0-∞” value ([2]; SAD Cohort 1, 175 mg (n = 8)) was 53,800 hr × ng/mL. The “AUC0-∞” value ([2]; SAD Cohort 1, 350 mg (n = 8)) was 103,000 hr × ng/mL, the Cmax ([2]; SAD Cohort 1, 350 mg (n = 8)) was 2760 ng/mL and the “AUC0-∞” value ([2]; SAD Cohort 1, 525 mg (n = 2)) was 127,000 hr × ng/mL. The AUC0-24 ([2]; SAD Cohort 1, 4th dose 350 mg (n = 1)) was 70,100 hr × ng/mL.
